Source: patent publication US20260001928A1 (CORTERIA PHARMACEUTICALS, priority 2022, published 2026)
*1 amine or outer side, *2 acyl side, *3 side chain or, on linkers, in order; H or OH if unused. Where a SMILES comes first, the peptide text is derived from it. Side-chain parts run from the residue outwards. [ ]: non-standard residue; d: D form. The star is where a group is joined. C18 diacid = O=C(O)CCCCCCCCCCCCCCCCC(=O)*; C16 diacid = O=C(O)CCCCCCCCCCCCCCC(=O)*; γGlu = O=C(O)[C@H](CCC(=O)[*:2])N[*:1]; Pentanoyl = CCCCC(=O)*; AEEA = NCCOCCOCC(=O)O; Ac3c = NC1(C(=O)O)CC1

Columns and labels:
human CRF2a receptor = molecular target: T1, human CRF2a receptor (Homo sapiens, UniProt Q13324); assay: Activity at human CRF2a receptor, cAMP functional assay in TeloHEAC cells; type: cell-based; conditions: TeloHEAC cells stably expressing human CRF2a receptor, relative to urocortin 2 (100 nM = 100%)
T1 construct: expressed in transfected cells; host or cells: TeloHEAC cells
T1 sequence (Q13324 1-411): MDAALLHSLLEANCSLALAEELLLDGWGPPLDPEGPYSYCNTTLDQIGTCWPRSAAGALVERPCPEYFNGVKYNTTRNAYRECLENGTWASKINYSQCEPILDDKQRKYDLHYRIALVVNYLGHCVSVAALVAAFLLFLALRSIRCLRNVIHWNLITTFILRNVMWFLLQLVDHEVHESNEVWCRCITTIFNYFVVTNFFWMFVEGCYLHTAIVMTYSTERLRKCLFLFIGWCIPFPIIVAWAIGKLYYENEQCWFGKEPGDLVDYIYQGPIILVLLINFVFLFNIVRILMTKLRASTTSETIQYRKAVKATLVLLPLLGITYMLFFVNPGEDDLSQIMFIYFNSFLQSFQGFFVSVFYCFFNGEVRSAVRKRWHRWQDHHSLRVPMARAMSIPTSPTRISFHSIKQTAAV
Procedure, shortened: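 cAMP accumulation was measured by HTRF 665/620 nm ratio after 30 min at 37° C compound exposure (16 twofold dilutions) of CRF2a-expressing TeloHEAC cells, 10000/well, in HEPES-buffered HBSS plus IBMX. Activity was normalised to urocortin 2 at 100 nM (100%), and EC50 was the concentration giving half-maximal activation.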

CFR1R receptor = molecular target: T2, CFR1R receptor (Homo sapiens, UniProt P34998); assay: Activity at anti-target CFR1R receptor, cAMP assay in CRF1R-overexpression CHO-K1 cells; type: cell-based; conditions: 100% = Sauvagine at 100 nM; for EC50: cAMP
T2 construct: host or cells: CHO-K1 (clone 2)
T2 sequence (P34998 24-415): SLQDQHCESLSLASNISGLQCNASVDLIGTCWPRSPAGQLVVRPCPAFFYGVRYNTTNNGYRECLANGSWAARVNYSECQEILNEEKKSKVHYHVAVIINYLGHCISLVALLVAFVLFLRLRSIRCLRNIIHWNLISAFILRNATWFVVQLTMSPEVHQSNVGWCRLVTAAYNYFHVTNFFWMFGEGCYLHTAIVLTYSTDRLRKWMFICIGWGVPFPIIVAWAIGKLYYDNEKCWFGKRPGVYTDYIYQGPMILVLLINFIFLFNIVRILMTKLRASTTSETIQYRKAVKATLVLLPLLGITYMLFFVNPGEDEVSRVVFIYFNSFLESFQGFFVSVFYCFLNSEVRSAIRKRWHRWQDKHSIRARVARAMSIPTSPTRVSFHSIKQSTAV
Procedure, shortened: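 The method mirrors that used with TeloHAEC cells. Here, thawed clone 2 cells seeded at 4000 cells/well are tested, and 100 nM Sauvagine sets the top of the activation scale.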

[1] = In vitro subcutaneous tissue supernatant (SCts) stability and metabolite identification, rat; type: in vitro ADME; parameters: remaining at 2 h: dose or concentration left out as unconfirmed; conditions: male, Sprague Dawley; rat subcutaneous tissue supernatant (SCts), 37° C, 2 h
Description: In vitro metabolic stability in subcutaneous tissue supernatant (SCts) was studied in male Sprague Dawley rats. Test compounds were incubated […] for 2 hours at 37° C.
Software aided in vitro metabolite identification on SCts stability samples was performed using either Metabolite Pilot (Sciex) or Biopharma Finder (Thermo). In addition, metabolite identification using Metabolite Pilot was performed on plasma samples of Comp Y following SC administration to rat at 1 mg/kg.

[2] = Chemical stability in buffer (pH 7.4 / pH 4.5), % purity loss; type: physicochemical; conditions: 40° C. vs 5° C., 14 or 28 days
Procedure, shortened: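 LC-UV gave % loss after 14 or 28 days of storage at 5 °C or 40 °C. Samples were diluted supernatants from compound incubated 1 h at room temperature at 10 mg/mL target, in 100 mM acetate pH 4.5 or 100 mM phosphate pH 7.4.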

CCCCC(=O)N[C@H](C(=O)N[C@@H](CC(C)C)C(=O)N[C@@H](CO)C(=O)N[C@@H](CC(C)C)C(=O)N[C@@H](CC(=O)O)C(=O)N[C@@H](C(=O)N1CCC[C@H]1C(=O)N[C@H](C(=O)N[C@@H](CCCCN)C(=O)N[C@@H](CC(C)C)C(=O)N[C@@H](CCCCNC(=O)COCCOCCNC(=O)COCCOCCNC(=O)CC[C@H](NC(=O)CCCCCCCCCCCCCCCCC(=O)O)C(=O)O)C(=O)N[C@@H](CCCCN)C(=O)N[C@H](C(=O)N[C@@H](CC(C)C)C(=O)N[C@@H](CC(C)C)C(=O)N[C@@H](CCC(=O)O)C(=O)N[C@@H](CCC(N)=O)C(=O)N[C@@H](CCC(=O)O)C(=O)N[C@@H](CCCCN)C(=O)N[C@@H](CCC(N)=O)C(=O)N[C@@H](CCCCN)C(=O)N[C@@H](CCCCN)C(=O)N[C@@H](CCC(N)=O)C(=O)N[C@@H](CCCNC(=N)N)C(=O)N[C@@H](CCC(=O)O)C(=O)N[C@@H](CCC(N)=O)C(=O)N[C@@H](C)C(=O)N[C@@H](CCC(=O)O)C(=O)N[C@H](C(=O)N[C@@H](CC(N)=O)C(=O)N[C@H](C(=O)N[C@@H](CCC(N)=O)C(=O)N[C@H](C(=O)N[C@@H](CC(C)C)C(=O)N[C@@H](C)C(=O)N[C@@H](CCC(N)=O)C(=O)N[C@H](C(N)=O)C(C)C)[C@@H](C)CC)C(C)C)[C@@H](C)O)[C@@H](C)CC)[C@@H](C)CC)C(C)C)C(C)C [compound 121] (Pentanoyl-VLSLD[dV]PIKLK([AEEA-AEEA-γGlu-C18 diacid])KILLEQEKQKKQREQAETNVQILAQV-NH2)
EC50 (human CRF2a receptor): 5.76 nM | Emax (% I) (CFR1R receptor): 6 % I | EC50 (CFR1R receptor): > 250 nM | remaining at 2 h [1]: 77%

CC[C@H](C)[C@H](NC(C)=O)C(=O)N[C@H](C(=O)N[C@@H](CC(C)C)C(=O)N[C@@H](CO)C(=O)N[C@@H](CC(C)C)C(=O)N[C@@H](CC(=O)O)C(=O)N[C@@H](C(=O)N1CCC[C@H]1C(=O)N[C@H](C(=O)N[C@@H](CCCCN)C(=O)N[C@@H](CC(C)C)C(=O)N[C@@H](CCCCNC(=O)CC[C@H](NC(=O)CCCCCCCCCCCCCCCCC(=O)O)C(=O)O)C(=O)N[C@@H](CCCCN)C(=O)N[C@H](C(=O)N[C@@H](CC(C)C)C(=O)N[C@@H](CC(C)C)C(=O)N[C@@H](CCC(=O)O)C(=O)N[C@@H](CCC(N)=O)C(=O)N[C@@H](CCC(=O)O)C(=O)N[C@@H](CCCCN)C(=O)N[C@@H](CCC(N)=O)C(=O)N[C@@H](CCCCN)C(=O)N[C@@H](CCCCN)C(=O)N[C@@H](CCC(N)=O)C(=O)N[C@@H](CCCNC(=N)N)C(=O)N[C@@H](CCC(=O)O)C(=O)N[C@@H](CCC(N)=O)C(=O)N[C@@H](C)C(=O)N[C@@H](CCC(=O)O)C(=O)N[C@H](C(=O)N[C@@H](CC(N)=O)C(=O)NC1(C(=O)N[C@@H](CCC(N)=O)C(=O)N[C@H](C(=O)N[C@@H](CC(C)C)C(=O)N[C@@H](C)C(=O)N[C@@H](CCC(N)=O)C(=O)N[C@H](C(N)=O)C(C)C)[C@@H](C)CC)CC1)[C@@H](C)O)[C@@H](C)CC)[C@@H](C)CC)C(C)C)C(C)C [compound 136] (Ac-IVLSLD[dV]PIKLK([γGlu-C18 diacid])KILLEQEKQKKQREQAETN[Ac3c]QILAQV-NH2)
EC50 (human CRF2a receptor): 0.16 nM | Buffer stability pH 4.5 % purity loss ([2]; 100 mM acetate buffer pH 4.5): 0.0% | Buffer stability pH 7.4 % purity loss ([2]; 100 mM phosphate buffer pH 7.4): 24.3% | Emax (% I) (CFR1R receptor): 5 % I | EC50 (CFR1R receptor): > 250 nM | remaining at 2 h [1]: 78%

CC[C@H](C)[C@H](N)C(=O)N[C@H](C(=O)N[C@@H](CC(C)C)C(=O)N[C@@H](CO)C(=O)N[C@@H](CC(C)C)C(=O)N[C@@H](CC(=O)O)C(=O)N[C@H](C(=O)N1CCC[C@H]1C(=O)N[C@H](C(=O)N[C@@H](CCCCN)C(=O)N[C@@H](CC(C)C)C(=O)N[C@@H](CCCCNC(=O)COCCOCCNC(=O)COCCOCCNC(=O)CC[C@H](NC(=O)CCCCCCCCCCCCCCCCC(=O)O)C(=O)O)C(=O)N[C@@H](CCCCN)C(=O)N[C@H](C(=O)N[C@@H](CC(C)C)C(=O)N[C@@H](CC(C)C)C(=O)N[C@@H](CCC(=O)O)C(=O)N[C@@H](CCC(N)=O)C(=O)N[C@@H](CCC(=O)O)C(=O)N[C@@H](CCCCN)C(=O)N[C@@H](CCC(N)=O)C(=O)N[C@@H](CCCCN)C(=O)N[C@@H](CCCCN)C(=O)N[C@@H](CCC(N)=O)C(=O)N[C@@H](CCCNC(=N)N)C(=O)N[C@@H](CCC(=O)O)C(=O)N[C@@H](CCC(N)=O)C(=O)N[C@@H](C)C(=O)N[C@@H](CCC(=O)O)C(=O)N[C@H](C(=O)N[C@@H](CC(N)=O)C(=O)N[C@@H](CCCCN)C(=O)N[C@@H](CCC(N)=O)C(=O)N[C@H](C(=O)N[C@@H](CC(C)C)C(=O)N[C@@H](C)C(=O)N[C@@H](CCC(N)=O)C(=O)N[C@H](C(N)=O)C(C)C)[C@@H](C)CC)[C@@H](C)O)[C@@H](C)CC)[C@@H](C)CC)C(C)C)C(C)C [149 (CompY)] (H-IVLSLDVPIKLK([AEEA-AEEA-γGlu-C18 diacid])KILLEQEKQKKQREQAETNKQILAQV-NH2)
remaining at 2 h [1]: 4%

CC[C@H](C)[C@H](N)C(=O)N[C@H](C(=O)N[C@@H](CC(C)C)C(=O)N[C@@H](CO)C(=O)N[C@@H](CC(C)C)C(=O)N[C@@H](CC(=O)O)C(=O)N[C@H](C(=O)N1CCC[C@H]1C(=O)N[C@H](C(=O)N[C@@H](CCCCN)C(=O)N[C@@H](CC(C)C)C(=O)N[C@@H](CCCCNC(=O)CC[C@H](NC(=O)CCCCCCCCCCCCCCC(=O)O)C(=O)O)C(=O)N[C@@H](CCC(N)=O)C(=O)N[C@H](C(=O)N[C@@H](CC(C)C)C(=O)N[C@@H](CC(C)C)C(=O)N[C@@H](CCCCN)C(=O)N[C@@H](CCC(N)=O)C(=O)N[C@@H](CCC(=O)O)C(=O)N[C@@H](CCCNC(=N)N)C(=O)N[C@@H](CCC(N)=O)C(=O)N[C@@H](CCCCN)C(=O)N[C@@H](CCCCN)C(=O)N[C@@H](CCC(N)=O)C(=O)N[C@@H](CCCNC(=N)N)C(=O)N[C@@H](CCC(=O)O)C(=O)N[C@@H](CCC(N)=O)C(=O)N[C@@H](C)C(=O)N[C@@H](CCC(=O)O)C(=O)N[C@@H](CCCCN)C(=O)N[C@@H](CC(N)=O)C(=O)N[C@@H](CCCCN)C(=O)N[C@@H](CCC(N)=O)C(=O)N[C@H](C(=O)N[C@@H](CC(C)C)C(=O)N[C@@H](CCC(=O)O)C(=O)N[C@@H](CCC(N)=O)C(=O)N[C@H](C(N)=O)C(C)C)[C@@H](C)CC)[C@@H](C)CC)[C@@H](C)CC)C(C)C)C(C)C [151 (CompX)] (H-IVLSLDVPIKLK([γGlu-C16 diacid])QILLKQERQKKQREQAEKNKQILEQV-NH2)
remaining at 2 h [1]: 0%
